Results taken from BindingDB's records for patent US20240209019 (Ardelyx, 2024).

Biological target: T1, 11-beta-hydroxysteroid dehydrogenase type 2 (Homo sapiens, UniProt P80365)
T1 sequence (P80365 whole entry): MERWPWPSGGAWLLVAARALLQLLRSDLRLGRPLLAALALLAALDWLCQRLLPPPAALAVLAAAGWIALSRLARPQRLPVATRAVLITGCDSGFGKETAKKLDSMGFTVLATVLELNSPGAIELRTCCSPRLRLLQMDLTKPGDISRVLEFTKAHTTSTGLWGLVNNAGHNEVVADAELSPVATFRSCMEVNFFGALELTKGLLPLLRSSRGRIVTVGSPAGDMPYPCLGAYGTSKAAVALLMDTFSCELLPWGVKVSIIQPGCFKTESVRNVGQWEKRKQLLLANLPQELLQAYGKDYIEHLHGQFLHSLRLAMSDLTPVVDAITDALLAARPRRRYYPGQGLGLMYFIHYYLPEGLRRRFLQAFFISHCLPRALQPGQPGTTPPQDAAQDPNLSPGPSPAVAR
Test: HSD2 Activity
Procedure: Compounds were diluted in DMSO and serial dilutions prepared by titrating in DMSO. Compounds were then diluted into DMEM/F12. Transwell plates containing descending colon cultures were washed twice with DMEM/F12 and compound was added to the apical compartment. Cells were incubated with test compound for 30 minutes at 37° C., 5% CO2 to equilibrate across the cell membrane. A second compound plate was prepared in which the serially diluted compounds in DMSO were diluted into DMEM/F12 containing 40 nM cortisol. Following the 30 minute pre-incubation step, the apical media was aspirated and compounds diluted in DMEM/F12 with 40 nM cortisol were added to the apical side of the transwell. The plate was then incubated for four hours at 37° C., 5% CO2. Cortisol levels were measured using a cortisol HTRF assay kit as described by the manufacturer (Cisbio).

With `CCCOCCOCCOCCOC(=O)O[C@H]1CC[C@@]2(C)[C@@H](CC[C@]3(C)[C@@H]2C(=O)C=C2[C@@H]4C[C@@](C)(C(=O)O)CC[C@]4(C)CC[C@]23C)[C@]1(C)C(=O)O` [US20240209019, Compound noid16] the IC50 was > 10 µM.
